Assay results published in EP0021229A1, “Arylazo compounds, their preparation and their use” (priority 1979, dated 1981).

Biological target: T1, prostaglandin-15-dehydrogenase (Homo sapiens, UniProt P15428)
T1 construct: from tissue
T1 sequence (P15428 1-266): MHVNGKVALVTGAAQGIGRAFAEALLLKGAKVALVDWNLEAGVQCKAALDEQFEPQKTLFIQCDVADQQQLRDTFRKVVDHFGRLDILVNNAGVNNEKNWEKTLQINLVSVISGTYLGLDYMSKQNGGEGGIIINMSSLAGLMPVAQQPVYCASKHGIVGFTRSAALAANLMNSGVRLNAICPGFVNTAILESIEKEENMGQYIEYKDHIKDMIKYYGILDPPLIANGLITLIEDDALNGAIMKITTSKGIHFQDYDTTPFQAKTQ
Assay: Inhibition of prostaglandin F2a inactivation in cell-free organ preparations (Hoult and Moore)
Format: biochemical
Conditions: in vitro, radioactive prostaglandin F2a incubated with cellfree preparations of different organs; compared to sulfasalazine (compound A)
Procedure: Radioactive prostaglandin F2a was incubated with cellfree preparations of different organs (containing prostaglandin-15-dehydrogenase) according to Hoult and Moore, British Journal of Pharmacology, Vol. 61 (1977), p. 615. After a suitable time the prostaglandins were extracted and separated by chromatography. Then the amount of remaining prostaglandin F 2a was compared with the amounts of metabolites. The inhibiting effect was obtained by the addition of the compounds according to the invention during the incubation and comparison with control experiments without such addition. The results may be represented either as a concentration giving 50% inhibition of the prostaglandin inactivation, or as an inhibition in per cen at a certain concentration of the studied compound. In the following table the results for some compounds according to the invention are shown compared to the known drug sulfasalazine.

Row | activity (inhibition of the prostaglandin inactivation) relative to the known compound A [times] | Compound | activity (inhibition of the prostaglandin inactivation) compared with compound A, in words
1 |  | O=C(O)Cc1cc(N=Nc2ccccc2)ccc1O [C, 2-hydroxy-5-phenylazo-benzeneacetic acid] | significantly more active than compound A
2 | 50 | O=C(O)Cc1cc(N=Nc2ccc(S(=O)(=O)Nc3ccccn3)cc2)ccc1O [compound B] | 
